This is an account of results in patent publication US20080319065A1, “Systemic and Intrathecal Effects of a Novel Series of Phospholipase A2 Inhibitors on Hyperalgesia and Spinal Pge2 Release” (The Regents of the University of California, priority 2005, published 2008).

One assay relates to spinal release of PGE2. The experiment in a line: Intrathecal dialysis and PGE2 assay. The class given is in vivo, rat. Conditions: 3 mg/kg IP pretreatment. The source says: For spinal drug injections, lumbar catheters were implanted in rats under isoflurane anesthesia according to a modification of the procedure described by Yaksh (Yaksh and Rudy, supra, 1976). A polyethylene catheter (PE-5; Spectranetics, 0.014 in OD) was inserted into the intrathecal space and advanced to the rostral edge of the lumbar enlargement through an incision in the atlanto-occipital membrane. Five days after implantation rats were entered into the study. In separate experiments to assess spinal prostaglandins release, rats were prepared with lumbar loop dialysis catheters with three lumens, as previously described, see (Yaksh, et al., supra, 2001).
In brief, the outer two lumens were connected to a length of dialysis tubing (10 Kda cut off). The catheter was then implanted intrathecally using the same technique as described above for the intrathecal catheter. A three-day interval was allowed to elapse prior to including the animal in a study. In all cases, the exclusion criteria were i) presence of any neurological sequelae, ii) 20% weight loss after implantation, or iii) catheter occlusion.
Spinal dialysis experiments to define the spinal release of PGE2 were conducted in unanesthetized rats 3 days after dialysis catheter implantation. A syringe pump (Harvard, Natick, Mass.) was connected and dialysis tubing was perfused with artificial cerebro spinal fluid (ACSF) at a rate of 10 μl/min. The ACSF contained (mM) 151.1 Na^+, 2.6 K^+, 0.9 Mg^2+, 1.3 Ca^2+, 122.7 Cl^−, 21.0 HCO3, 2.5 HPO4 and 3.5 dextrose and was bubbled with 95% O2/5% CO2 before each experiment to adjust the final pH to 7.2. The efflux (20 min per fraction) was collected in an automatic fraction collector (Eicom, Kyoto, Japan) at 4° C. […] The concentration of PGE2 in spinal dialysate was measured by ELISA using a commercially available kit (Assay Designs 90001, Assay Designs, Ann Arbor, Mich.). The antibody is selective for PGE2 with less than 2.0% cross-reactivity to PGF1, PGF2, 6-ketoPGF1, PGA2 or PGB2, but cross-reacts with PGE1 and PGE3.

Another assay deals with T1, GV sPLA2 (Homo sapiens, UniProt P39877).
T1 sequence (P39877 21-138): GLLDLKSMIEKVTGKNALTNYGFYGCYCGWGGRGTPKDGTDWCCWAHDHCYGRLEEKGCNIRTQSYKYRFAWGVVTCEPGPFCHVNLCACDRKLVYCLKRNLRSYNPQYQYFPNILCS
The experiment in a line: GV sPLA2 activity assay. In kind it is biochemical. Conditions: at 0.091 mole fraction.

In assay [1] the test system is intrathecal SP evoked thermal hyperalgesia. The experiment in a line: Intrathecal substance P-induced thermal hyperalgesia. The class given is in vivo, rat. Conditions: 3 mg/kg IP, 30 min before IT SP. The text has this:
Male Holtzman Sprague-Dawley rats (300-350 g; Harlan Industries) were individually housed and maintained on a 12-hr light/dark cycle with free access to food and water. For spinal drug injections, lumbar catheters were implanted in rats under isoflurane anesthesia according to a modification of the procedure described by Yaksh (Yaksh and Rudy, supra, 1976). A polyethylene catheter (PE-5; Spectranetics, 0.014 in OD) was inserted into the intrathecal space and advanced to the rostral edge of the lumbar enlargement through an incision in the atlanto-occipital membrane. Five days after implantation rats were entered into the study. […] A timer was actuated with the light source, and latency was defined as the time required for the paw to show a brisk withdrawal as detected by photodiode motion sensors that stop the timer and terminate the stimulus. Paw withdrawal latencies (PWL) were assessed prior to any treatment (control) and at intervals after treatment. Left (injured) and right (uninjured) paw withdrawal latencies were assessed and plotted versus time. In addition, difference latency scores (uninjured-injured) were calculated and the average withdrawal latency over the post-injection observation intervals are calculated for comparison between treatment groups. […] The mean PWL of the left and right paws was assessed at each time point. […]

With `CCCCCCCCCCCCCCC(=O)C(=O)NCCCC(=O)OCC` [AX048, Ethyl 4-[(2-oxohexadecanoyl)amino]butanoate], the “IT SP-evoked release of PGE2 in spinal dialysate” value with spinal release of PGE2 is “significant inhibitory effect upon PGE2 synthesis and release”. Besides, the “efficacy against sPLA2” value on GV sPLA2 is 61.5%. Further, in assay [1], the “prevention of intrathecal SP-evoked thermal hyperalgesia” value is on record as “completely prevented the spinally-evoked thermal hyperalgesia”.
In the case of `CCC(=O)C(=O)NCCCC(=O)OC` [AX010], in the assay with spinal release of PGE2, the “IT SP-evoked release of PGE2 in spinal dialysate” value was “significant increase as compared to vehicle only”.
